In US8741853B2, “Mitochondria-targeting antioxidant therapeutics” (priority 2007, dated 2014):
Where two headings read alike, the source gives them in different places.

Tests used:
[1] = test system: mitochondrial membrane potential (ΔΨm) in SHSY-5Y neuroblastoma cells; conditions: FRET-based ΔΨm assay, reference agent, cited from earlier work
[2] = test system: mitochondrial membrane potential (ΔΨm) in SHSY-5Y neuroblastoma cells; assay: FRET-based ΔΨm assay (NAO/TMRE), compound alone and Ca2+-induced ΔΨm collapse; assay type: cell-based; conditions: concentration not given; for B-C response, typical values: reference agents alone; for % Ca^2+ response score (comparison agents): reference agents
[3] = humans; cited from earlier work
[4] = test system: human tumor cell lines FaDu and Jurkat, Ki-v-Ras-transformed Balb/c-3T3 murine mesenchymal cell line; conditions: cited from earlier work
[5] = test system: caspase-3 activation in SHSY-5Y cells; assay: Caspase-3 activation induced by ethacrynic acid plus thapsigargin; assay type: cell-based; conditions: positive control, 24 hr ethacrynic acid/thapsigargin stress
Method: The potential ability of test compound Nos. 1-10 individually to moderate caspase activation was therefore examined using SHSY-5Y cells, in accordance with the Dykens assay.
In the Dykens assay method, caspase activation is induced by 24 hr exposure to a combined stress of ethacrynic acid (25 to derivatize glutathione and induce oxidative stress, and thapsigargin (1 μM), to induce a chronic increase in cytosolic Ca^2+. Caspase activity is determined using a fluorogenic substrate, with rates normalized to cell number; and is expressed as % response of controls on every plate exposed to ethacrynate and thapsigargen in the absence of compound. Compound Nos. 1-10 at 10 μM were separately introduced for reaction at the same time as the ethycrynic acid/thapsigargin addition, and were present throughout the 24 hr incubation period.

[6] = read-out: EC50, prevent Ca^2+ uptake via uniporter inhibition

Nc1ncnc2c1ncn2[C@@H]1O[C@H](COP(=O)(O)OP(=O)(O)O)[C@@H](O)[C@H]1O [ADP]
EC50 ([1]; read-out: EC50, dissipate ΔΨm under physiological circumstances): 122000 nM

N#CC(C#N)=NNc1cccc(Cl)c1 [CCCP]
B-C response, typical values [2]: ~−1800 RFU
EC50 ([1]; read-out: EC50, collapse ΔΨm): 2000 nM

O=C(O)CCCCC1CCSS1 (stereo not drawn) [alpha-lipoic acid, 1,2-dithiolane-3-pentanoic acid]
plasma half-life [3]: less than 1 hour
time to excretion, mainly in the urine [3]: ≤ 24 h
Apoptosis in tumor cell lines [4]: induces apoptosis

CO[C@H](C/C=C\C=C\CC/C=C/C[C@H](C)/C=C/C(=C\C(=O)O)CC(=O)O)/C(C)=C\C=C(/C)C(=O)O [bongkrekate]
B-C response, typical values [2]: ~600 RFU
% Ca^2+ response score (comparison agents) [2]: 44%
EC50 ([1]; read-out: EC50, inhibit Ca^2+-mediated ΔΨm loss): 77 nM

CC[C@H]1/C=C/C=C/C[C@@H](C)[C@H](O)[C@@](C)(O)C(=O)[C@@H](C)[C@H](O)[C@@H](C)C(=O)[C@@H](C)[C@H](O)[C@@H](C)/C=C/C(=O)O[C@@H]2[C@H](C)[C@H](CC1)O[C@]1(CC[C@H](C)[C@H](C[C@@H](C)O)O1)[C@H]2C [oligomycin]
EC50 ([1]; read-out: EC50, hyperpolarize ΔΨm): 26 nM

N.N.N.N.N.N.N.N.N.N.N.N.N.N.[Cl-].[Cl-].[Cl-].[Cl-].[Cl-].[Cl-].[O-2].[O-2].[Ru+3].[Ru+3].[Ru+4] [ruthenium red]
% Ca^2+ response score (comparison agents) [2]: 9%
EC50 [1, 6]: 270 nM

IGF-1: positive control in caspase-3 activation assay
Reduction of caspase activity [5]: 64%

RU-360
EC50 [1, 6]: 12 nM
